Measurements reported in the NIST ThermoML archive (doi:10.1021/je400861g).
± gives the expanded uncertainty stated by the source.

Assay: mn = molality of the nth substance listed, in mol/kg
Conditions: 298.15 K; for surface tension liquid-gas: Ring tensiometer; for electrical conductivity: 101 kPa, Liquid, DDS-11A conductometer

CCCCCCCCCCCCCCn1cc[n+](C)c1.F[B-](F)(F)F [3-methyl-1-tetradecyl-1H-imidazol-3-ium tetrafluoroborate] + O
Conditions	electrical conductivity [S/m]	surface tension liquid-gas [mN/m]
m1 = 0.0001	–	47.9 ± 0.9
m1 = 0.00018	–	41.9 ± 0.8
m1 = 0.0003	0.032 ± 0.002	39 ± 0.8
m1 = 0.0006	0.0344 ± 0.002	33.6 ± 0.7
m1 = 0.001	0.036 ± 0.002	29.9 ± 0.7
m1 = 0.0018	0.0368 ± 0.002	28.4 ± 0.7
m1 = 0.003	0.0376 ± 0.002	27.8 ± 0.7
m1 = 0.006	0.0393 ± 0.002	27.6 ± 0.7
m1 = 0.01	0.0423 ± 0.002	27.3 ± 0.7
m1 = 0.018	0.0487 ± 0.002	27 ± 0.7
m1 = 0.03	0.0543 ± 0.002	–
m1 = 0.04	0.0633 ± 0.002	–
m1 = 0.06	0.0732 ± 0.002	–

CCCCCCCCCCCCCCCCn1cc[n+](C)c1.F[B-](F)(F)F [1-hexadecyl-3-methylimidazolium tetrafluoroborate] + O
Conditions	electrical conductivity [S/m]	surface tension liquid-gas [mN/m]
m1 = 3e-06	0.0022 ± 0.002	–
m1 = 5e-06	0.0022 ± 0.0022	–
m1 = 7e-06	0.0024 ± 0.002	–
m1 = 1e-05	–	52.9 ± 2.2
m1 = 2e-05	–	47.9 ± 2
m1 = 3e-05	–	43.8 ± 1.5
m1 = 5e-05	0.007 ± 0.0021	38.4 ± 1.2
m1 = 7e-05	0.0103 ± 0.0021	34.9 ± 0.8
m1 = 0.0001	0.0142 ± 0.002	36.7 ± 0.8
m1 = 0.0002	0.0203 ± 0.002	37 ± 0.8
m1 = 0.0003	0.0265 ± 0.002	36.4 ± 0.8
m1 = 0.0005	0.0372 ± 0.002	35.2 ± 0.7
m1 = 0.0007	0.0462 ± 0.002	35.2 ± 0.7
m1 = 0.001	0.0593 ± 0.002	–

CCCCCCCCCCCC[n+]1ccn(C)c1.F[B-](F)(F)F [1-dodecyl-3-methylimidazolium tetrafluoroborate] + O
Conditions	electrical conductivity [S/m]	surface tension liquid-gas [mN/m]
m1 = 0.0003	0.0324 ± 0.002	56.4 ± 0.9
m1 = 0.0006	0.0346 ± 0.002	50.4 ± 0.9
m1 = 0.001	0.0379 ± 0.002	43.1 ± 0.8
m1 = 0.0018	0.0455 ± 0.002	34.3 ± 0.7
m1 = 0.003	0.0553 ± 0.002	29.6 ± 0.7
m1 = 0.006	0.0629 ± 0.002	28.2 ± 0.7
m1 = 0.008	0.064 ± 0.002	28.3 ± 0.7
m1 = 0.01	0.0653 ± 0.002	28.2 ± 0.7
m1 = 0.018	0.0712 ± 0.002	28.3 ± 0.7
m1 = 0.03	0.0809 ± 0.002	28 ± 0.7
m1 = 0.04	0.091 ± 0.002	–
m1 = 0.06	0.11 ± 0.002	27.7 ± 0.7
